According to US8937038B2, “Composition containing peptide ligand that bonds with CXCR2 for treating infective and inflammatory diseases” (priority 2010, dated 2015):

How the values were obtained:
CLP mice [1] = experiment: Histological analysis (hematoxylin and eosin) of major internal organs of CLP mice; assay type: in vivo, mouse; conditions: FIG. 7
Procedure: A mouse was subjected to CLP surgery, and after 2 hours, PBS or Ac-PGP was injected at a dose of 17.5 mg/kg to the mouse. After the CLP surgery, the mouse was sacrificed within 24 hours, and the lung of the mouse was fixed, microtomed, and stained with hematoxylin and eosin so as to perform morphological analysis.
(§1) The defunctionalization of the major internal organs such as lungs was associated with the mortality after sepsis. A morphological change was observed by performing hematoxylin and eosin staining. […] Liver tissues from the CLP mice were necrotized to a higher extent, but the necrosis of the liver tissues was decreased by administration of Ac-PGP. […] Most of the apoptosis in the thymus or spleen of a CLP mouse was caused in the cortex of the thymus or spleen in which immature cells were populated. When compared with those of the sham or Ac-PGP mice, an important morphological change in apoptotic cells of the CLP mice is that small compact pyknosis containing multiple nuclear fragments were present in apoptotic lymphocytes (FIG. 7). […] The apoptosis of immune cells was also accompanied with sepsis.

CLP mice [2] = experiment: Apoptosis of immune cells (TUNEL) in CLP mice; assay type: in vivo, mouse
Procedure: First, a tissue embedded in paraffin was deparaffinized using a typical histological protocol, and performed digoxigenin-dUTP nick end labeling (TUNEL) analysis. Sections were permeated into the Triton X-100 at 4° C. for 2 minutes, and the sections were flooded in terminal deoxynucleotidyl transferase (TdT) and a TUNEL reagent at 37° C. for 60 minutes. A percentage of apoptotic cells (TUNEL-positive cells) was determined by counting 500 splenocytes under an optical microscope. Also, the tissue embedded in paraffin was deparaffinized using a typical histological protocol, and immunohistochemical analysis was performed on the microtomed sections of caspase-3 (Wang J. et al. 2001 Proc. Natl. Acad. Sci. USA 98:4038-43).
as §1
The apoptosis of immune cells is associated with the mortality on sepsis. Here, the CLP was proven to remarkably increase apoptosis of splenocytes (FIG. 22). […] Apoptosis of lymphocytes was induced by activation of some major caspases including caspase-3. Therefore, not only the effect of Ac-PGP on activation of caspase-3 but also the effect of CLP activation by caspase-3 were examined (FIG. 23).

mouse neutrophils = experiment: Disinfection activity of mouse neutrophils phagocytizing E. coli; assay type: cell-based; conditions: Ac-PGP 0.1 to 100 nM for 20 minutes, FIG. 11
Procedure: Mouse neutrophils were separated from peripheral blood using a Histopaque-1077 solution (Sigma) (Bae Y S et al. 2001 Blood. 97: 2854-2862). The neutrophils separated from normal mice were stimulated with various concentrations of Ac-PGP for 10 minutes in the presence of cytochalasin B (5 μM). To identify the role of mCXCR2, the neutrophils were pre-incubated in various concentrations of SB225002 or a vehicle (DMSO) for 30 minutes in a stationary environment, and Ac-PGP (20 μM) was added, and incubated for 10 minutes. H2O2 in a supernatant was measured using a H2O2 measurement kit (Molecular probe).
The disinfection activities of the neutrophils were measured according to a method disclosed by Yan et al. (Yan J J et al. 2004 Nat. Med. 10:161-167). The neutrophils were stationarily incubated at 37° C. for an hour on a 13 mm plastic cover slip in a 60 mm plastic culture dish. The non-attached cells were removed by PBS. The attached neutrophils were stationarily incubated for an hour with 10^6 opsonized E. coli cells. The non-phagocytized E. coli cells were washed, and the number of bacteria surviving in the neutrophils was determined before and after the E. coli cells were treated with various concentrations of Ac-PGP or vehicle for an hour. A percentage of the apoptosized bacteria was calculated as follows. […]

human neutrophils = experiment: Cytokine production by LPS-stimulated human neutrophils; assay type: cell-based; conditions: human neutrophils stimulated with LPS
From the text: All kinds of protocols used in human beings were approved by the Institutional Review Board (IRB) at Dong-A University Hospital, and prior consents were obtained from all blood donors. Peripheral blood was collected from healthy donors, and human peripheral monocytes were separated using a Histopaque-1077 gradient. Neutrophils were separated through methods such as dextran precipitation of red blood cell, hypotonic lysis, and usage of lymphocyte isolation medium gradient, as known in the related art (Bae, Y. S. et al. Blood 97, 2854-2862(2001)). The separated human leukocytes were used immediately.
Next, an effect of the Ac-PGP on production of cytokines by human neutrophils and PBMCs was examined. […] A human CXCR2 chemokine agonist CXCL8 had few effects on production of TNF-α or IFN-γ stimulated with LPS (FIG. 28 to FIG. 31). Therefore, the Ac-PGP could improve both antiseptic activities in leukocytes derived from human beings and mice.

Substance: acetylated-Pro-Gly-Pro [Ac-PGP]
- necrosis of the liver tissues (CLP mice [1]; 17.5 mg/kg 2 hours after CLP): decreased
- formation of alveolar congestion and thrombotic lesions in the lungs (CLP mice [1]): remarkably suppressed
- apoptosis of the immune cells in the spleen (CLP mice [2]; CLP mice, FIG. 8): remarkably suppressed
- apoptosis of the immune cells in the thymus (CLP mice [2]; CLP mice, FIG. 9): remarkably suppressed
- apoptosis of splenocytes (CLP mice [2]; CLP mice, FIG. 22): remarkably suppressed the apoptosis of splenocytes
- inhibitory effect of the apoptosis of splenocytes by Ac-PGP (CLP mice [2]; IFN-γ-deficient CLP mice, FIG. 22): remarkably relieved
- disinfection activity (mouse neutrophils): highly increased the disinfection activity in a dose-dependent manner
- production of TNF-α (human neutrophils; FIG. 28): remarkably suppressed
- production of IFN-γ (human neutrophils; FIG. 30): remarkably improved
